Data from patent publication US10583112B2, “Benzo[b]furans as bromodomain inhibitors” (GlaxoSmithKline Intellectual Property (No. 2) Limited, priority 2016, dated 2020).

Molecular target: T1, BRD4 BD2 (Homo sapiens, UniProt O60885, Y97A)
T1 construct: BRD4 (1-477) (Y97A) and (Y390A); made in house; host or cells: E. coli (pET15b vector)
Test: BRD4 BD2 TR-FRET competition assay
Format: binding
Conditions: mean where stated, n given; read-out: pIC50 in the BRD4 BD2 TR-FRET assay (converted)
Protocol: Bromodomain binding was assessed utilising a time resolved fluorescent resonance energy transfer (TR-FRET) competition assay. […] Europium chelate, conjugated to an anti-6*His antibody, was utilised as the donor fluorophore in the TR-FRET pair.
In order to generate a TR-FRET signal, donor fluorophore is excited by a laser at λ337 nm, which subsequently leads to emission at λ618 nm.
In order to monitor differential binding to either BD1 or BD2, single residue mutations of key tyrosines to alanine were made in the acetyl lysine binding pockets. To validate this approach, a double residue mutant tandem domain protein was produced for each of the BET family members.
Final purification was completed by Superdex 200 prep grade size exclusion column. Purified protein was stored at −80° C. in 20 mM HEPES pH 7.5 and 100 mM NaCl.
All assay components were dissolved in an assay buffer composing of 50 mM HEPES pH7.4, 50 mM NaCl, 5% Glycerol, 1 mM DTT and 1 mM CHAPS. […] An equal volume of 3 nM of anti-6*His Europium chelate was added to all wells, followed by a further 30 minute incubation at room temperature. TR-FRET was detected using a Perkin Elmer Multimode plate reader, by exciting the donor fluorophore at λ337 nm and subsequently, after a delay of 50 μsecs, measuring emission of the donor and acceptor fluorophores at λ615 nm and λ665 nm, respectively.
cA four parameter curve fit of the following form was then applied: y=a+((b−a)/(1+(10^x/10^c)^d) • Where ‘a’ is the minimum, ‘b’ is the Hill slope, ‘c’ is the pIC50 and ‘d’ is the maximum.

SMILES | IC50 [µM]
CNC(=O)c1cc(C(=O)N[C@@H]2C[C@H]2CCO)cc2c1O[C@@H](CF)[C@@H]2c1ccccc1 (mixture of isomers) [Example 196, (2R,3R)-2-(fluoromethyl)-N^5-((trans)-2-(2-hydroxyethyl)cyclopropyl)-N^7-methyl-3-phenyl-2,3-dihydrobenzofuran-5,7-dicarboxamide (diastereomeric mixture)] | 1 to 100
CNC(=O)c1cc(C(=O)N[C@H]2C[C@@H]2CCO)cc2c1O[C@@H](CF)[C@@H]2c1ccccc1 (mixture of isomers) [Example 197, 2R,3R)-2-(fluoromethyl)-N^5-((trans)-2-(2-hydroxyethyl)cyclopropyl)-N^7-methyl-3-phenyl-2,3-dihydrobenzofuran-5,7-dicarboxamide (diastereomeric mixture)] | 1 to 100
CNC(=O)c1cc(C(=O)NCCOC)cc2c1O[C@H](CO)[C@H]2c1cccc(OC)c1 (relative stereo) [Example 34, (2S*,3S*)-2-(Hydroxymethyl)-N^5-(2-methoxyethyl)-3-(3-methoxyphenyl)-N^7-methyl-2,3-dihydrobenzofuran-5,7-dicarboxamide] | 1 to 100
CNC(=O)c1cc(C(=O)NCCn2cnnc2)cc2c1O[C@H](CF)[C@H]2c1ccccc1 (relative stereo) [Example 133, (Trans)-N^5-(2-(4H-1,2,4-triazol-4-yl)ethyl)-2-(fluoromethyl)-N^7-methyl-3-phenyl-2,3-dihydrobenzofuran-5,7-dicarboxamide] | 1 to 100
CNC(=O)c1cc(C(=O)NCCCC2CCNCC2(F)F)cc2c1O[C@@H](C)[C@@H]2c1ccccc1 (single isomer, unassigned) [Example 198, (2S,3R)-N5-(3-((S*)-3,3-difluoropiperidin-4-yl)propyl)-N7,2-dimethyl-3-phenyl-2,3-dihydrobenzofuran-5,7-dicarboxamide] | 1 to 100
CNC(=O)c1cc(C(=O)NCC(C)O)cc2c1O[C@H](C)[C@H]2c1ccccc1 (stereo partly drawn) [Example 6, (2R,3S)—N^5-(2-Hydroxypropyl)-N^7,2-dimethyl-3-phenyl-2,3-dihydrobenzofuran-5,7-dicarboxamide] | 1 to 100
CNC(=O)c1cc(C(=O)NCC(C)O)cc2c1O[C@@H](C)[C@H]2c1ccccc1 (stereo partly drawn) [Example 7, (2S,3S)—N^5-(2-hydroxypropyl)-N^7,2-dimethyl-3-phenyl-2,3-dihydrobenzofuran-5,7-dicarboxamide] | 1 to 100
CNC(=O)c1cc(C(=O)N[C@H]2[C@@H]3COC[C@@H]32)cc2c1O[C@H](C)[C@H]2c1cccc(OCCO)c1 [Example 85, (2R,3S)—N^5-((1R,5S,6R)-3-Oxabicyclo[3.1.0]hexan-6-yl)-3-(3-(2-hydroxyethoxy)phenyl)-N^7,2-dimethyl-2,3-dihydrobenzofuran-5,7-dicarboxamide] | 1 to 100
CNC(=O)c1cc(C(=O)NC)c2c(c1)[C@@H](c1ccccc1)[C@H](C)O2 [Example 100, (2S,3R)-N^5,N^7,2-trimethyl-3-phenyl-2,3-dihydrobenzofuran-5,7-dicarboxamide] | 1 to 100
CCNC(=O)c1cc(C(=O)NC)c2c(c1)[C@@H](c1ccccc1)[C@H](C)O2 [Example 101, (2S,3R)-N^5-ethyl-N^7,2-dimethyl-3-phenyl-2,3-dihydrobenzofuran-5,7-dicarboxamide] | 1 to 100
CNC(=O)c1cc(C(=O)NC2CC2)cc2c1O[C@@H](C)[C@@H]2c1ccccc1 [Example 102, (2S,3R)-N^5-cyclopropyl-N^7,2-dimethyl-3-phenyl-2,3-dihydrobenzofuran-5,7-dicarboxamide] | 1 to 100
CNC(=O)c1cc(C(=O)NC2CC2)cc2c1O[C@H](C)[C@@H]2c1ccccc1 [Example 103, (2R,3R)-N^5-cyclopropyl-N^7,2-dimethyl-3-phenyl-2,3-dihydrobenzofuran-5,7-dicarboxamide] | 1 to 100
CNC(=O)c1cc(C(=O)NC2CC2)cc2c1O[C@@H](CO)[C@@H]2c1ccccc1 [Example 104, (2R,3R)-N^5-cyclopropyl-2-(hydroxymethyl)-N^7-methyl-3-phenyl-2,3-dihydrobenzofuran-5,7-dicarboxamide] | 1 to 100
CNC(=O)c1cc(C(=O)NCC(C)O)cc2c1O[C@@H](C)[C@@H]2c1ccccc1 (stereo partly drawn) [Example 107, (2S,3R)-N^5-(2-hydroxypropyl)-N^7,2-dimethyl-3-phenyl-2,3-dihydrobenzofuran-5,7-dicarboxamide] | 1 to 100
CNC(=O)c1cc(C(=O)NC2C[C@H]2CCO)cc2c1O[C@H](CF)[C@H]2c1ccccc1 (stereo partly drawn) [Example 132, (2S,3S)-2-(Fluoromethyl)-N^5-((trans)-2-(2-hydroxyethyl)cyclopropyl)-N^7-methyl-3-phenyl-2,3-dihydrobenzofuran-5,7-dicarboxamide] | 1 to 100
CCC(=O)N1C[C@@H]2[C@H](C1)[C@H]2NC(=O)c1cc(C(=O)NC)c2c(c1)[C@@H](c1ccccc1)[C@H](CF)O2 [Example 164, (2R,3R)-2-(Fluoromethyl)-N^7-methyl-3-phenyl-N^5-((1R,5S,6s)-3-propionyl-3-azabicyclo[3.1.0]hexan-6-yl)-2,3-dihydrobenzofuran-5,7-dicarboxamide] | 1 to 100
CNC(=O)c1cc(C(=O)Nc2nncn2C)cc2c1O[C@H](CF)[C@H]2c1ccccc1 [Example 172] | 1 to 100
CNC(=O)c1cc(C(=O)Nc2nnn(C)n2)cc2c1O[C@H](CF)[C@H]2c1ccccc1 [Example 174, (2S,3S)-2-(Fluoromethyl)-N^7-methyl-N^5-(2-methyl-2H-tetrazol-5-yl)-3-phenyl-2,3-dihydrobenzofuran-5,7-dicarboxamide] | 1 to 100
CNC(=O)c1cc(C(=O)N[C@H]2[C@@H]3COC[C@@H]32)cc2c1O[C@@H](C)[C@@H]2c1cccc(OCCO)c1 [Example 181, (2S,3R)-N^5-((1R,5S,6r)-3-oxabicyclo[3.1.0]hexan-6-yl)-3-(3-(2-hydroxyethoxy)phenyl)-N^7,2-dimethyl-2,3-dihydrobenzofuran-5,7-dicarboxamide] | 1 to 100
CNC(=O)c1cc(C(=O)NCCc2cccnc2)cc2c1O[C@@H](C)[C@@H]2c1cccc(OCCO)c1 [Example 183, (2S,3R)-3-(3-(2-hydroxyethoxy)phenyl)-N^7,2-dimethyl-N^5-(2-(pyridin-3-yl)ethyl)-2,3-dihydrobenzofuran-5,7-dicarboxamide] | 1 to 100
CNC(=O)c1cc(C(=O)N[C@@H]2C[C@H]2CO)cc2c1O[C@@H](CF)[C@@H]2c1ccccc1 [Example 184, (2R,3R)-2-(fluoromethyl)-N^5-((1R,2R)-2-(hydroxymethyl)cyclopropyl)-N^7-methyl-3-phenyl-2,3-dihydrobenzofuran-5,7-dicarboxamide] | 1 to 100
CNC(=O)c1cc(C(=O)Nc2cn[nH]c2)cc2c1O[C@@H](CF)[C@@H]2c1ccccc1 [Example 186, (2R,3R)-2-(fluoromethyl)-N^7-methyl-3-phenyl-N^5-(1H-pyrazol-4-yl)-2,3-dihydrobenzofuran-5,7-dicarboxamide] | 1 to 100
CNC(=O)c1cc(C(=O)Nc2cnn(C)c2)cc2c1O[C@@H](CF)[C@@H]2c1ccccc1 [Example 187, (2R,3R)-2-(fluoromethyl)-N^7-methyl-N^5-(1-methyl-1H-pyrazol-4-yl)-3-phenyl-2,3-dihydrobenzofuran-5,7-dicarboxamide] | 1 to 100
